Results taken from ChEMBL document CHEMBL1201862, “PubChem BioAssay data set” (2004).
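Following 48 hours of exposure in 96-well plates, responses at five concentrations were used to interpolate endpoints linearly. The concentration for 50% growth inhibition is given as GI50.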 Active and inactive are the calls of the source. No stated cut-off is given here; in the data, active = GI50 up to about 1.1 µM and inactive = higher.

What was measured:
Assay in all cases: growth of human tumour cells (NCI), 48 h
[1] = system: PC-3
[2] = system: HL-60
[3] = system: KM12
[4] = system: Malme-3M
[5] = system: UACC-257
[6] = system: SK-MEL-5
[7] = system: HCC 2998
[8] = system: HT-29
[9] = system: MOLT-4
[10] = system: NCI-H460
[11] = system: T47D
[12] = system: HCT-15
[13] = system: UACC-62
[14] = system: NCI/ADR-RES
[15] = system: HCT-116
[16] = system: MCF7
[17] = system: COLO 205
[18] = system: SF-295
[19] = system: DU-145
[20] = system: OVCAR-4

| SMILES | GI50 [1] | GI50 [2] | GI50 [3] | GI50 [4] | GI50 [5] | GI50 [6] | GI50 [7] | GI50 [8] | GI50 [9] | GI50 [10] | GI50 [11] | GI50 [12] [µM] | GI50 [13] | GI50 [14] | GI50 [15] | GI50 [16] | GI50 [17] | GI50 [18] | GI50 [19] | GI50 [20] |
| --- | --- | --- | --- | --- | --- | --- | --- | --- | --- | --- | --- | --- | --- | --- | --- | --- | --- | --- | --- | --- |
| CCCCCCC(=O)OC[n+]1ccc2c(C)c3[nH]c4ccc(OC)cc4c3c(C)c2c1 | 0.246 µM (active) | 0.245 µM (active) | 0.186 µM (active) | 1.01 µM (active) | 1.01 µM (active) | 1.16 µM (inactive) | 0.421 µM (active) | 0.0664 µM (active) | 0.0378 µM (active) | 0.0382 µM (active) | 0.883 µM (active) | 0.117 | 0.953 µM (active) | 0.2 µM (active) | 0.054 µM (active) | 0.214 µM (active) | 0.207 µM (active) | 0.277 µM (active) | 0.55 µM (active) | 0.679 µM (active) |
| CC1OC2OC3C(OCC(O)C3O)OC(=O)[C@]34CCC(C)(C)CC3C3=CCC5[C@@]6(C)C[C@H](O)[C@H](OC7OC(CO)C(O)C(O)C7OC7OCC(OC(=O)CC(C)(O)CC(=O)OC1C(OC1OC(CO)C(O)C(O)C1O)C2O)C(O)C7O)[C@@](C)(CO)C6CC[C@@]5(C)[C@]3(C)CC4 (stereo not given in full) | 7.91 µM (inactive) | 1.8 µM (inactive) | 8.53 µM (inactive) | 7.87 µM (inactive) | 3.48 µM (inactive) | 11.6 µM (inactive) | 2.43 µM (inactive) | 7.78 µM (inactive) | 10.3 µM (inactive) | 12 µM (inactive) | 9.46 µM (inactive) | 12 | 9.73 µM (inactive) | 8.32 µM (inactive) | 7.11 µM (inactive) | 12 µM (inactive) | 2.3 µM (inactive) | 4.06 µM (inactive) | 8.09 µM (inactive) | 6.25 µM (inactive) |
| CC(=O)O[C@H]1CC[C@@]2(C)C(=CC[C@H]3[C@@H]4CC[C@H](c5cc(C(F)(F)F)n(C(C)=O)n5)[C@@]4(C)CC[C@@H]32)C1 | 4.47 µM (inactive) | 3.5 µM (inactive) | 8.41 µM (inactive) | > 35 µM (inactive) | 5.52 µM (inactive) | 3.45 µM (inactive) | 13.6 µM (inactive) | 4.62 µM (inactive) | 2.47 µM (inactive) | 2.63 µM (inactive) | 6.41 µM (inactive) | 5.64 | 12 µM (inactive) | 4.83 µM (inactive) | 3.88 µM (inactive) | 5.87 µM (inactive) | 3.62 µM (inactive) | 4.85 µM (inactive) | 11.4 µM (inactive) | 3.31 µM (inactive) |
